How the values were obtained:
Experiment in all cases: Test E preemergence
[1] = tested on: sandbur; format: in vivo, Cenchrus echinatus; conditions: for Sandbur plant response rating: scale 0 to 100 (0 no effect, 100 complete control); for Plant response rating, Sandbur: scale 0 to 100, 0 no effect, 100 complete control
Excerpt: (§1) Seeds of plant species selected from corn (Zea mays), soybean (Glycine max), velvetleaf (Abutilon theophrasti), lambsquarters (Chenopodium album), wild poinsettia (Euphorbia heterophylla), palmer pigweed (Amaranthus palmeri), waterhemp (common waterhemp, Amaranthus rudis), surinam grass (Brachiaria decumbens), large (Lg) crabgrass (Digitaria sanguinalis), Brazilian crabgrass (Digitaria horizontalis), fall panicum (Panicum dichotomiflorum), giant foxtail (Setaria faberii), green foxtail (Setaria viridis), goosegrass (Eleusine indica), johnsongrass (Sorghum halepense), ragweed (common ragweed, Ambrosia elatior), barnyardgrass (Echinochloa crus-galli), sandbur (southern sandbur, Cenchrus echinatus), arrowleaf sida (Sida rhombifolia), Italian ryegrass (Lolium multiflorum), dayflower (Virginia (VA) dayflower, Commelina virginica), field bindweed (Convolvulus arvensis), morningglory (Ipomoea coccinea), nightshade (eastern black nightshade, Solanum ptycanthum), kochia (Kochia scoparia), yellow nutsedge (Cyperus esculentus), cocklebur (common cocklebur, Xanthium strumarium), smartweed (ladysthumb smartweed, and hairy beggarticks (Bidens pilosa), were planted into a silt loam soil and treated preemergence with test chemicals formulated in a non-phytotoxic solvent mixture which included a surfactant.
(§2) At the same time, plants from these crop and weed species and also horseweed (Canada horseweed, Conyza canadensis), waterhemp_RES1, (ALS & Triazine resistant common waterhemp, Amaranthus rudis), and waterhemp_RES2, (ALS & HPPD resistant common waterhemp, Amaranthus rudis) were planted in pots containing Redi-Earth® planting medium (Scotts Company, 14111 Scottslawn Road, Marysville, Ohio 43041) comprising spaghnum peat moss, vermiculite, wetting agent and starter nutrients were treated with postemergence applications of test chemicals formulated in the same manner. Plants ranged in height from 2 to 18 cm for postemergence treatments (1- to 4-leaf stage). Treated plants and controls were maintained in a greenhouse for 14 to 21 days, after which time all species were compared to controls and visually evaluated. Plant response ratings, summarized in Table E, are based on a scale of 0 to 100 where 0 is no effect and 100 is complete control. A dash (-) response means no test result.

[2] = tested on: wild poinsettia; format: in vivo, Euphorbia heterophylla; conditions: for Poinsettia, Wild plant response rating: scale 0 to 100 (0 no effect, 100 complete control); for Plant response rating, Poinsettia, Wild: scale 0 to 100, 0 no effect, 100 complete control
Summary of the method: (§3)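 Test chemicals formulated in a non-phytotoxic solvent mixture containing a surfactant were applied preemergence to seeds in silt loam soil or postemergence to plants at the 1- to 4-leaf stage in potting mix. After 14 to 21 days in a greenhouse, injury was visually rated against controls on a 0-100 scale (0 = no effect, 100 = complete control).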

[3] = tested on: yellow nutsedge; format: in vivo, Cyperus esculentus; conditions: for Nutsedge, Yellow plant response rating: scale 0 to 100 (0 no effect, 100 complete control); for Plant response rating, Nutsedge, Yellow: scale 0 to 100, 0 no effect, 100 complete control
Summary of the method: as §3

[4] = tested on: hairy beggarticks; format: in vivo, Bidens pilosa; conditions: for Beggarticks plant response rating: scale 0 to 100 (0 no effect, 100 complete control); for Plant response rating, Beggarticks: scale 0 to 100, 0 no effect, 100 complete control
Excerpt: as §1, §2

[5] = tested on: Italian ryegrass; format: in vivo, Lolium multiflorum; conditions: for Ryegrass, Italian plant response rating: scale 0 to 100 (0 no effect, 100 complete control); for Plant response rating, Ryegrass, Italian: scale 0 to 100, 0 no effect, 100 complete control
Summary of the method: as §3

[6] = tested on: surinam grass; format: in vivo, Brachiaria decumbens; conditions: for Surinam Grass plant response rating: scale 0 to 100 (0 no effect, 100 complete control); for Plant response rating, Surinam Grass: scale 0 to 100, 0 no effect, 100 complete control
Summary of the method: as §3

[7] = tested on: dayflower; format: in vivo, Commelina virginica; conditions: for Dayflower, VA plant response rating: scale 0 to 100 (0 no effect, 100 complete control); for Plant response rating, Dayflower, VA: scale 0 to 100, 0 no effect, 100 complete control
Summary of the method: as §3

[8] = tested on: lambsquarters; format: in vivo, Chenopodium album; conditions: for Lambsquarters plant response rating: scale 0 to 100 (0 no effect, 100 complete control); for Plant response rating, Lambsquarters: scale 0 to 100, 0 no effect, 100 complete control
Summary of the method: as §3

[9] = tested on: arrowleaf sida; format: in vivo, Sida rhombifolia; conditions: for Arrowleaf Sida plant response rating: scale 0 to 100 (0 no effect, 100 complete control); for Plant response rating, Arrowleaf Sida: scale 0 to 100, 0 no effect, 100 complete control
Summary of the method: as §3

[10] = tested on: goosegrass; format: in vivo, Eleusine indica; conditions: for Goosegrass plant response rating: scale 0 to 100 (0 no effect, 100 complete control); for Plant response rating, Goosegrass: scale 0 to 100, 0 no effect, 100 complete control
Excerpt: as §1, §2

[11] = tested on: green foxtail; format: in vivo, Setaria viridis; conditions: for Foxtail, Green plant response rating: scale 0 to 100 (0 no effect, 100 complete control); for Plant response rating, Foxtail, Green: scale 0 to 100, 0 no effect, 100 complete control
Excerpt: as §1, §2

N#Cc1cccc(Oc2ncc(Cl)cn2)c1-n1cc(C(F)(F)F)cn1 [Compound 58, 3-[(5-chloro-2-pyrimidinyl)oxy]-2-[4-(trifluoromethyl)-1H-pyrazol-1-yl]benzonitrile]
Sandbur plant response rating ([1]; 16 g ai/ha): 0 | Sandbur plant response rating ([1]; 31 g ai/ha): 20 | Sandbur plant response rating ([1]; 62 g ai/ha): 75 | Plant response rating, Sandbur ([1]; 125 g ai/ha): 90 | Plant response rating, Sandbur ([1]; 250 g ai/ha): 95 | Poinsettia, Wild plant response rating ([2]; 16 g ai/ha): 5 | Poinsettia, Wild plant response rating ([2]; 31 g ai/ha): 15 | Poinsettia, Wild plant response rating ([2]; 62 g ai/ha): 90 | Plant response rating, Poinsettia, Wild ([2]; 125 g ai/ha): 100 | Plant response rating, Poinsettia, Wild ([2]; 250 g ai/ha): 100 | Nutsedge, Yellow plant response rating ([3]; 16 g ai/ha): 0 | Nutsedge, Yellow plant response rating ([3]; 31 g ai/ha): 5 | Nutsedge, Yellow plant response rating ([3]; 62 g ai/ha): 25 | Plant response rating, Nutsedge, Yellow ([3]; 125 g ai/ha): 60 | Plant response rating, Nutsedge, Yellow ([3]; 250 g ai/ha): 80 | Beggarticks plant response rating ([4]; 16 g ai/ha, preemergence): 0 | Beggarticks plant response rating ([4]; 31 g ai/ha, preemergence): 0 | Plant response rating, Beggarticks ([4]; Preemergence, 62 g ai/ha): 0 | Plant response rating, Beggarticks ([4]; preemergence, 125 g ai/ha): 15 | Plant response rating, Beggarticks ([4]; preemergence, 250 g ai/ha): 100 | Ryegrass, Italian plant response rating ([5]; 16 g ai/ha): 30 | Ryegrass, Italian plant response rating ([5]; 31 g ai/ha): 35 | Ryegrass, Italian plant response rating ([5]; 62 g ai/ha): 75 | Plant response rating, Ryegrass, Italian ([5]; 125 g ai/ha): 98 | Plant response rating, Ryegrass, Italian ([5]; 250 g ai/ha): 98 | Surinam Grass plant response rating ([6]; 16 g ai/ha): 0 | Surinam Grass plant response rating ([6]; 31 g ai/ha): 0 | Surinam Grass plant response rating ([6]; 62 g ai/ha): 25 | Plant response rating, Surinam Grass ([6]; 125 g ai/ha): 65 | Plant response rating, Surinam Grass ([6]; 250 g ai/ha): 90 | Dayflower, VA plant response rating ([7]; 16 g ai/ha): 5 | Dayflower, VA plant response rating ([7]; 31 g ai/ha): 20 | Dayflower, VA plant response rating ([7]; 62 g ai/ha): 70 | Plant response rating, Dayflower, VA ([7]; 125 g ai/ha): 98 | Plant response rating, Dayflower, VA ([7]; 250 g ai/ha): 98 | Lambsquarters plant response rating ([8]; 16 g ai/ha): 98 | Lambsquarters plant response rating ([8]; 31 g ai/ha): 98 | Lambsquarters plant response rating ([8]; 62 g ai/ha): 98 | Plant response rating, Lambsquarters ([8]; 125 g ai/ha): 98 | Plant response rating, Lambsquarters ([8]; 250 g ai/ha): 98 | Arrowleaf Sida plant response rating ([9]; 16 g ai/ha, preemergence): 80 | Arrowleaf Sida plant response rating ([9]; 31 g ai/ha, preemergence): 100 | Plant response rating, Arrowleaf Sida ([9]; Preemergence, 62 g ai/ha): 100 | Plant response rating, Arrowleaf Sida ([9]; preemergence, 125 g ai/ha): 100 | Plant response rating, Arrowleaf Sida ([9]; preemergence, 250 g ai/ha): 100 | Goosegrass plant response rating ([10]; 16 g ai/ha): 10 | Goosegrass plant response rating ([10]; 31 g ai/ha): 70 | Goosegrass plant response rating ([10]; 62 g ai/ha): 95 | Plant response rating, Goosegrass ([10]; 125 g ai/ha): 100 | Plant response rating, Goosegrass ([10]; 250 g ai/ha): 100 | Foxtail, Green plant response rating ([11]; 16 g ai/ha): 65 | Foxtail, Green plant response rating ([11]; 31 g ai/ha): 95 | Foxtail, Green plant response rating ([11]; 62 g ai/ha): 100 | Plant response rating, Foxtail, Green ([11]; 125 g ai/ha): 100 | Plant response rating, Foxtail, Green ([11]; 250 g ai/ha): 100

N#Cc1cccc(Oc2ncc(F)cn2)c1-n1cc(Cl)cn1 [Compound 73]
Sandbur plant response rating ([1]; 16 g ai/ha): 10 | Sandbur plant response rating ([1]; 31 g ai/ha): 20 | Sandbur plant response rating ([1]; 62 g ai/ha): 20 | Plant response rating, Sandbur ([1]; 125 g ai/ha): 30 | Plant response rating, Sandbur ([1]; 250 g ai/ha): 35 | Poinsettia, Wild plant response rating ([2]; 16 g ai/ha): 0 | Poinsettia, Wild plant response rating ([2]; 31 g ai/ha): 30 | Poinsettia, Wild plant response rating ([2]; 62 g ai/ha): 35 | Plant response rating, Poinsettia, Wild ([2]; 125 g ai/ha): 65 | Plant response rating, Poinsettia, Wild ([2]; 250 g ai/ha): 85 | Nutsedge, Yellow plant response rating ([3]; 16 g ai/ha): 0 | Nutsedge, Yellow plant response rating ([3]; 31 g ai/ha): 0 | Nutsedge, Yellow plant response rating ([3]; 62 g ai/ha): 50 | Plant response rating, Nutsedge, Yellow ([3]; 125 g ai/ha): 40 | Plant response rating, Nutsedge, Yellow ([3]; 250 g ai/ha): 30 | Beggarticks plant response rating ([4]; 16 g ai/ha, preemergence): 5 | Beggarticks plant response rating ([4]; 31 g ai/ha, preemergence): 5 | Plant response rating, Beggarticks ([4]; Preemergence, 62 g ai/ha): 20 | Plant response rating, Beggarticks ([4]; preemergence, 125 g ai/ha): 50 | Plant response rating, Beggarticks ([4]; preemergence, 250 g ai/ha): 75 | Ryegrass, Italian plant response rating ([5]; 16 g ai/ha): 0 | Ryegrass, Italian plant response rating ([5]; 31 g ai/ha): 20 | Ryegrass, Italian plant response rating ([5]; 62 g ai/ha): 35 | Plant response rating, Ryegrass, Italian ([5]; 125 g ai/ha): 35 | Plant response rating, Ryegrass, Italian ([5]; 250 g ai/ha): 65 | Surinam Grass plant response rating ([6]; 16 g ai/ha): 0 | Surinam Grass plant response rating ([6]; 31 g ai/ha): 0 | Surinam Grass plant response rating ([6]; 62 g ai/ha): 5 | Plant response rating, Surinam Grass ([6]; 125 g ai/ha): 20 | Plant response rating, Surinam Grass ([6]; 250 g ai/ha): 35 | Dayflower, VA plant response rating ([7]; 16 g ai/ha): 0 | Dayflower, VA plant response rating ([7]; 31 g ai/ha): 0 | Dayflower, VA plant response rating ([7]; 62 g ai/ha): 25 | Plant response rating, Dayflower, VA ([7]; 125 g ai/ha): 65 | Plant response rating, Dayflower, VA ([7]; 250 g ai/ha): 95 | Lambsquarters plant response rating ([8]; 16 g ai/ha): 10 | Lambsquarters plant response rating ([8]; 31 g ai/ha): 65 | Lambsquarters plant response rating ([8]; 62 g ai/ha): 98 | Plant response rating, Lambsquarters ([8]; 125 g ai/ha): 100 | Plant response rating, Lambsquarters ([8]; 250 g ai/ha): 100 | Arrowleaf Sida plant response rating ([9]; 16 g ai/ha, preemergence): 5 | Arrowleaf Sida plant response rating ([9]; 31 g ai/ha, preemergence): 40 | Plant response rating, Arrowleaf Sida ([9]; Preemergence, 62 g ai/ha): 80 | Plant response rating, Arrowleaf Sida ([9]; preemergence, 125 g ai/ha): 100 | Plant response rating, Arrowleaf Sida ([9]; preemergence, 250 g ai/ha): 100 | Goosegrass plant response rating ([10]; 16 g ai/ha): 0 | Goosegrass plant response rating ([10]; 31 g ai/ha): 20 | Goosegrass plant response rating ([10]; 62 g ai/ha): 70 | Plant response rating, Goosegrass ([10]; 125 g ai/ha): 98 | Plant response rating, Goosegrass ([10]; 250 g ai/ha): 100 | Foxtail, Green plant response rating ([11]; 16 g ai/ha): 0 | Foxtail, Green plant response rating ([11]; 31 g ai/ha): 20 | Foxtail, Green plant response rating ([11]; 62 g ai/ha): 70 | Plant response rating, Foxtail, Green ([11]; 125 g ai/ha): 80 | Plant response rating, Foxtail, Green ([11]; 250 g ai/ha): 95
